According to PubChem BioAssay (NCI):
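Cells were grown in 96-well plates and exposed to each compound for 48 hours at five concentrations; endpoints were interpolated linearly between bracketing concentrations, or set to the highest concentration if not reached. GI50 marks 50% less growth. Definition used: TGI = concentration required for complete inhibition of growth.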

How the values were obtained:
Assay in all cases: inhibition of tumour cell growth, NCI panel, 48 h
NCI-H226 lung = system: NCI-H226 lung
BT-549 breast = system: BT-549 breast
786-0 renal = system: 786-0 renal
ACHN renal = system: ACHN renal
OVCAR-8 ovarian = system: OVCAR-8 ovarian
A498 renal = system: A498 renal
MDA-MB-231 breast = system: MDA-MB-231 breast
MDA-N = system: MDA-N
HS 578T breast = system: HS 578T breast
MDA-MB-435 = system: MDA-MB-435
SR leukemia = system: SR leukemia

SMILES	TGI (NCI-H226 lung)	TGI (BT-549 breast)	TGI (786-0 renal)	TGI (ACHN renal)	TGI (OVCAR-8 ovarian)	TGI (A498 renal)	TGI (MDA-MB-231 breast)	TGI (MDA-N)	TGI (HS 578T breast)	TGI (MDA-MB-435)	TGI (SR leukemia)	GI50 (BT-549 breast)	GI50 (ACHN renal)	GI50 (OVCAR-8 ovarian)	GI50 (A498 renal)	GI50 (MDA-MB-231 breast)	GI50 (MDA-MB-435)	GI50 (NCI-H226 lung)	GI50 (SR leukemia)	GI50 (HS 578T breast)
COc1ccc(C2=[S+]C(c3ccccc3)(c3ccccc3)c3ccccc32)cc1	31.3 µM	53.9 µM	34.9 µM	86.1 µM	> 100 µM	44.6 µM	61.1 µM	54.5 µM	68 µM	41.1 µM										
Nc1ccccc1C#CC(=O)c1cccc(C(F)(F)F)c1	18 µM		4.68 µM			32.5 µM	4.97 µM	10.6 µM	6.47 µM	6.65 µM	> 100 µM									
CCOC(=O)/C=C/c1c(C)[nH]c(=O)[nH]c1=O	> 250 µM				> 250 µM	> 250 µM														
CN=C(Nc1ccc(OC)c2ccccc12)SC		> 10 µM	> 10 µM	> 10 µM	> 10 µM		> 10 µM	> 10 µM	> 10 µM	> 10 µM	> 10 µM									
Cc1ccc(O)c(C2=CC3=NNC(=O)C3C(c3cccc(Cl)c3)C2)c1 (configuration not stated)		78.7 µM	> 100 µM	> 100 µM	77.3 µM	> 100 µM	> 100 µM	92.2 µM	> 100 µM	> 100 µM	> 100 µM									
O=C(/C=C1\Sc2ccccc2N=C1CC(=O)c1ccccc1)c1ccccc1	35.5 µM	37.9 µM	21.7 µM	72.5 µM	37 µM	> 100 µM	41.8 µM	> 100 µM	> 100 µM	29.6 µM	16 µM									
C/C(=N\NC(=S)N1CCC(N2CCCCC2)CC1)c1ccccn1				5.65 µM	11.7 µM	5.21 µM	3.57 µM	5.9 µM	31.7 µM	6 µM	9.74 µM									
COc1cccc2c1C(=O)c1c(O)c3c(c(O)c1C2=O)C[C@@](O)(C(=O)COC(=O)c1ccccc1)C[C@@H]3OC1CC(N)C(O)C(C)O1 (some centres not stated)		2.32 µM		0.457 µM	1.18 µM	0.261 µM	1.79 µM			0.284 µM	0.225 µM	0.7 µM	0.0925 µM	0.154 µM	0.0771 µM	0.376 µM	0.137 µM			
Cc1ccc(Cl)cc1N=NC(=O)NNc1cc(Cl)ccc1C	43.1 µM	43.9 µM				48.8 µM	40.3 µM	> 100 µM	54.8 µM	99 µM	> 100 µM									
N#[N+]c1c([O-])c2ccccc2c2ccccc12	89.3 µM	> 100 µM	> 100 µM	> 100 µM	> 100 µM	46.9 µM	> 100 µM	> 100 µM	> 100 µM	> 100 µM	> 100 µM									
c1ccc2c(c1)c1ccccc1n2Cn1c2ccccc2c2ccccc21	> 100 µM	> 100 µM		> 100 µM	> 100 µM	> 100 µM	> 100 µM	> 100 µM		> 100 µM	> 100 µM									
Cc1cn(-c2cccc(NC(=O)c3ccc(C)c(Nc4nccc(-c5cccnc5)n4)c3)c2)cn1	3.32 µM	3.11 µM		3.17 µM	2.5 µM	23 µM	3.46 µM		5.43 µM	3.87 µM	5.02 µM	1.49 µM	1.69 µM	1.1 µM	10.9 µM	1.63 µM	1.86 µM	1.59 µM	2.08 µM	1.77 µM
O=C1CCC[C@H]2O[C@@H](COC(=O)c3ccccc3)C[C@H]2O1	> 100 µM			> 100 µM	> 100 µM	> 100 µM	> 100 µM	> 100 µM	> 100 µM	> 100 µM	> 100 µM									
O=c1oc(-c2ccc(O)cc2)cc2cc(O)ccc12		62.1 µM	> 100 µM	> 100 µM	> 100 µM	51.7 µM			64 µM	78.9 µM										
Cc1cc(N/N=C/c2nc(-c3ccc(Cl)cc3)oc2C)c2cc(Br)ccc2n1	50.4 µM	19.9 µM		5.01 µM	5.97 µM	26.5 µM	12 µM		28.3 µM	3.94 µM		6.91 µM	2.25 µM	2.41 µM	10.4 µM	3.43 µM	1.91 µM	17.4 µM		4.33 µM
COc1ccc(/C=C2\C[C@H]3[C@@H]4CCC5=C/C(=N/O)CC[C@]5(C)[C@H]4CC[C@]3(C)\C2=N\O)cc1	95.4 µM	53.7 µM	> 100 µM	98.3 µM	> 100 µM		> 100 µM	> 100 µM	> 100 µM	> 100 µM	86 µM									
O=c1nc2ccc([N+](=O)[O-])cc2[n+]([O-])[nH]1	> 100 µM	> 100 µM	> 100 µM	> 100 µM	> 100 µM	> 100 µM	> 100 µM	> 100 µM	> 100 µM	> 100 µM	> 100 µM									
C/C(=N\NC(=O)c1ccc(Cl)cc1)c1nc2ncccc2[nH]1		85.5 µM	55.3 µM	44.7 µM	58.6 µM	> 100 µM	> 100 µM	> 100 µM	93.5 µM	> 100 µM	> 100 µM									
O=C(N/N=C\c1cccc2ccccc12)Nc1ccccc1	> 100 µM	> 100 µM			> 100 µM	> 100 µM		> 100 µM	> 100 µM	> 100 µM	> 100 µM									
c1cc2c3c(c1)c1cc4c(cc1c[n+]3CC2)OCO4	4.69 µM				25.3 µM	14.9 µM														
CCc1ccc2[nH]c(O)c(C3=Nc4ccccc4C3=O)c2c1	> 100 µM	72.8 µM	19 µM	24.8 µM	57 µM	18.2 µM	> 100 µM	> 100 µM	> 100 µM	> 100 µM	37.8 µM									
O=C(NN1C(=O)C(Cl)C1c1cccc([N+](=O)[O-])c1)c1ccccc1O (configuration not stated)					> 100 µM						> 100 µM									
CCOc1cc(/C=C/C(=O)C(C(=O)/C=C/c2ccc(OC(=O)CNc3nc4ccccc4[nH]3)c(OCC)c2)C(=O)CNc2nc3ccccc3[nH]2)ccc1OC(=O)CNc1nc2ccccc2[nH]1	5.67 µM	3.13 µM		6.68 µM		3.87 µM	7.29 µM		5.18 µM	6.92 µM	2.53 µM	1.45 µM	2.31 µM		1.68 µM	2.39 µM	2.07 µM	2.07 µM	0.788 µM	1.83 µM
O=c1[nH]c(SCc2cccc([N+](=O)[O-])c2)nc2nc[nH]c12	> 100 µM	> 100 µM	> 100 µM	> 100 µM	> 100 µM	> 100 µM	> 100 µM	> 100 µM	> 100 µM	> 100 µM	> 100 µM									
Oc1[nH]c2ccccc2c1C1=Nc2ccccc2/C1=N\OCCOC1OCC(O)C(O)C1O (configuration not stated)	> 100 µM	> 100 µM	> 100 µM	> 100 µM	> 100 µM		> 100 µM	> 100 µM	> 100 µM	> 100 µM	> 100 µM									
